Test results: patent EP4711361A1, “NITROGEN-CONTAINING HETEROCYCLIC COMPOUND AND USE THEREOF” (Jiangsu Deyuan Pharmaceutical Co.,Ltd., priority 2023, dated 2024)

Experiments:
human CYP11B2 = biological target: T1, human CYP11B2 (Homo sapiens, UniProt P19099); experiment: In vitro activity assay of monoclonal cells overexpressing human CYP11B2; assay type: cell-based; details: G402 cells overexpressing human CYP11B2; 1 µM 11-deoxycorticosterone, 16 hours; aldosterone by LC-MS/MS
T1 construct: expressed in transfected cells; host or cells: human renal leiomyoma G402 cells (monoclonal)
T1 sequence (P19099 25-503): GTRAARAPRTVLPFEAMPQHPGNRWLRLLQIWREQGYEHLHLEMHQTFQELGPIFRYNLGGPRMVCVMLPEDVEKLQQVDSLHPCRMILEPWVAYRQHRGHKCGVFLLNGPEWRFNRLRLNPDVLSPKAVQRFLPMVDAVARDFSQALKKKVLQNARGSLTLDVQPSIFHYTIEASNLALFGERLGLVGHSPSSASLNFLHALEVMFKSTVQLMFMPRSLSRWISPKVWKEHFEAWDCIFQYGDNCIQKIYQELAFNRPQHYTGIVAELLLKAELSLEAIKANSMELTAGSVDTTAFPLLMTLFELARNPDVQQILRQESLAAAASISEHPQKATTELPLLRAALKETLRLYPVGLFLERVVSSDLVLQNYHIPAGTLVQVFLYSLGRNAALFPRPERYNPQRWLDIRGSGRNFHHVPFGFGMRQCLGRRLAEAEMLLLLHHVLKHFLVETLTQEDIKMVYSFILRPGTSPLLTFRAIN
Procedure: The human renal leiomyoma G402 cell line overexpressing human CYP11B2 was selected to serve as a compound activity screening system. Table 1: Cell and reagent information
2) Compound details: The test compound was prepared as a 10 µM working concentration using DMSO. 3) Experimental procedure
Day 1: Cells were digested, and human renal leiomyoma G402 cells overexpressing human CYP11B2 were resuspended to 1×10^5 cells/mL, with 100 µL seeded into a 96-well plate.
(§1) Day 3: The cell supernatant was collected and added to 200 µL of a methanol solution containing internal standards (internal standards: 35 ng/mL ketoprofen or 7.5 ng/mL carbamazepine or 5 ng/mL diphenhydramine or 10 ng/mL tolbutamide). The mixture was vortexed and centrifuged (4000×g, 4°C, 5 minutes). Then, 100 µL of the supernatant was taken and mixed with 100 µL of pure water.
Ratio = Aldosterone peak area/Internal standard peak area [formula] Control activity% = (Ratiotestcompound/RatioDMSO) × 100% [formula]
(§2) "Ratio test compound" represents the Ratio values at different concentrations of the test compound.
(§3) "Ratio DMSO" represents the Ratio value without the addition of the test compound. • X = Log (compound concentration) • Y = Control activity%
The IC50 of the test compound was determined by fitting to a nonlinear regression equation using XLfit 5.5.0. Table 3: Results for in vitro activity assay of monoclonal cells overexpressing human CYP11B2

human CYP11B1 = biological target: T2, human CYP11B1 (Homo sapiens, UniProt P15538); experiment: In vitro activity assay of monoclonal cells overexpressing human CYP11B1; assay type: cell-based; details: G402 cells overexpressing human CYP11B1; 1 µM 11-deoxycortisol, 16 hours; cortisol by LC-MS/MS
T2 construct: expressed in transfected cells; host or cells: human renal leiomyoma G402 cells (monoclonal)
T2 sequence (P15538 25-503): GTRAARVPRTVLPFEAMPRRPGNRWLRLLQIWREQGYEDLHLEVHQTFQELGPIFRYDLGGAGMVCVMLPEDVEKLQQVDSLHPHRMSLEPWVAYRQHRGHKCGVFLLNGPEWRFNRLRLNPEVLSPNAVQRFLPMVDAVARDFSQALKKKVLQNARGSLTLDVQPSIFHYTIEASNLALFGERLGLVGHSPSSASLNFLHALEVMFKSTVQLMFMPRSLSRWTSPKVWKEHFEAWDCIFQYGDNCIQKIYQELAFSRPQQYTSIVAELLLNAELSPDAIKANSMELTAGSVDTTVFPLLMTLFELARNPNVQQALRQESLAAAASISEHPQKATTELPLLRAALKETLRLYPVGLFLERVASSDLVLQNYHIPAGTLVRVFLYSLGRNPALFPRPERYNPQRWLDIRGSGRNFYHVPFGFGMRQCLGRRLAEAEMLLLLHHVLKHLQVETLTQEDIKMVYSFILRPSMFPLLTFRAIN
Procedure: The human renal leiomyoma G402 cell line overexpressing human CYP11B1 was selected to serve as a compound selectivity screening system.
Day 1: Cells were digested, and human renal leiomyoma G402 cells overexpressing CYP11B1 were resuspended to 1×10^5 cells/mL, with 100 µL seeded into a 96-well plate.
as §1
Ratio = Cortisol peak area/Internal standard peak area [formula] Control activity% = (Ratiotestcompound/RatioDMSO) × 100% [formula]
as §2, §3
The IC50 of the test compound was determined by fitting to a nonlinear regression equation using XLfit 5.5.0. Table 4: Results for in vitro activity assay of monoclonal cells overexpressing human CYP11B1

[1] = Permeability test (MDR1-MDCKII monolayer, bidirectional transport); assay type: in vitro ADME; details: dog
Procedure: Experimental objective: The permeability and efflux ratio of the compound of the present disclosure were determined using the MDR1-MDCKII monolayer cell model to assess its membrane permeability and potential for P-gp-mediated efflux transport.
Experimental protocol: MDR1-MDCKII cells (obtained from the Netherlands Cancer Institute) were seeded in 96-well plates (obtained from Corning) at a cell density of 3.33 × 10^5 cells/mL and cultured for 4 to 7 days to form confluent cell monolayers. Hank's balanced salt solution containing 10 mM HEPES (pH 7.40) was used as the transport buffer. The test compound was evaluated for bidirectional transport at a concentration of 2 µM, with the DMSO concentration in the incubation system maintained below 1%. After adding the samples, the cell plate was incubated at 37±1°C, 5% CO2, and saturated humidity for 2.5 hours. All samples were quantitatively analyzed using the LC-MS/MS method. The apparent permeability coefficient (Papp, cm/s) and efflux ratio (ER) were calculated using the following formula. Apparent permeability coefficient (Papp, cm/s) was calculated using the following formula: Papp = (dCr/dt) x Vr / (A x C0). Herein, dCr/dt represents the cumulative concentration of the compound at the receiving end per unit time (µM/s); Vr is the volume of the solution at the receiving end (with solution volumes at the apical and basolateral ends being 0.075 mL and 0.250 mL, respectively); A is the relative surface area of the cell monolayer (0.143 cm^2); C0 is the initial concentration of the test substance at the dosing end (µM) or the peak area ratio of the reference substance. The efflux ratio was calculated using the following formula: ER = Papp (BA)/ Papp (AB). Table 7: Permeability test results of compounds

in vivo = details: cynomolgus monkey, po, 3 mg/kg
in vitro [2] = details: human, microsomes
in vitro [3] = details: rat, plasma
in vitro [4] = details: cynomolgus monkey, plasma
in vitro [5] = details: human, plasma

CCC(=O)NC1CCCc2c(-c3cc4ccc(=O)n(C)c4cc3F)cncc21 (single isomer, unassigned) [Compound 019]
IC50 (human CYP11B2): 17.3 nM | IC50 (human CYP11B1): 1680 nM | efflux ratio at 2.5 h, 2 µM ([1]; MDCK-MDR1, pH 7.4, ER = Papp (BA)/ Papp (AB)): 1.55 | Papp A→B at 2.5 h, 2 µM ([1]; MDCK-MDR1, pH 7.4, pH 7.40, 2.5 hours, A to B, read-out: Apparent permeability coefficient (Papp (AB), 10^-6 cm/s)): 21.5 ×10⁻⁶ cm/s | AUC(0-t) at 24 h (in vivo): 23.9 µM·h | Cmax (in vivo): 3.79 µM | bioavailability (in vivo): 113% | half-life (in vivo): 4.65 h | CLint scaled at 1 µM (in vitro [2]): < 8.6 mL/min/kg | fraction unbound at 4 h, 2 µM (in vitro [3]): 0.129 | fraction unbound at 4 h, 2 µM (in vitro [4]): 0.248 | fraction unbound at 4 h, 2 µM (in vitro [5]): 0.238
